# Test results published in patent US10682337B2, “Compositions and methods for treatment and prevention of pyrexia in horses” (Kindred Biosciences, Inc., priority 2015, dated 2020).
# Assays:
# Assay type in all cases: in vivo
# [1] = test system: horses with clinical signs of infectious disease; experiment: two-phase efficacy study of oral metamizole in mature horses
# Method: A two-phase study to determine the efficacy of oral metamizole in mature horses was conducted as follows. In the first phase, 9 horses with clinical signs of infectious disease were enrolled.
# In the second phase, 8 horses with clinical signs of infectious disease were enrolled.
# The oral formulation of metamizole used for both phases was an aqueous formulation comprising 500 mg/ml metamizole sodium monohydrate, 10 mg/ml xanthan gum, and 100 mg/ml propylene glycol, and 15 mg/ml benzyl alcohol. The formulation was adjusted to pH 7.8 using sodium hydroxide.
# For both phases, rectal temperature was monitored at pre-determined intervals. Horses were redosed based on rectal temperature and minimum dosing intervals up to five additional times, for a total of six doses. Fever was required for redose with metamizole.
# [2] = test system: horses with naturally occurring respiratory infections; experiment: pilot efficacy study of orally administered metamizole in horses with fever; conditions: of 8 horses; oral gel 30 mg/kg; ≥2° F. decrease or ≤101.0° F. 6 hours following dose
# Method: Metamizole, as an active ingredient, was formulated into a simple gel for oral administration and dosed at 30 mg/kg body weight. Eight horses with naturally occurring respiratory infections were provided. The temperatures of the horses were monitored. […] Horses were treated up to three times with an oral formulation of metamizole sodium. Rectal temperature was monitored to determine response to treatment. […] Pyrexia returned at timepoints appropriate for the drug's plasma residence time.
# [3] = oral bioavailability of metamizole in horses (plasma 4-MAA); conditions: four horses; 30 mg/kg; water slurry via nasogastric intubation vs IV Vetalgina; plasma 4-MAA up to 48 hours; FIG. 1
# Method: The commercially available Vetalgina product (Intervet) for IV administration (sodium salt) was administered in accordance with the manufacturer's instructions. Plasma was collected prior to administration and at specified intervals for up to 48 hours. Horses underwent a washout period, and then were administered the active ingredient (metamizole sodium monohydrate) in a water slurry to the horses' stomach via nasogastric intubation. Plasma was collected again prior to […] administration and at specified intervals for up to 48 hours. Horses were treated with matched doses on a milligram per kilogram basis for both test articles. Plasma was assayed for the primary metabolite of metamizole sodium, 4-methylaminoantipyrine (4-MAA).
compound,measurement,setting,value
Cc1c(N(C)CS(=O)(=O)O)c(=O)n(-c2ccccc2)n1C [metamizole sodium monohydrate],Adverse events,"[1]; 30 and 40 mg/kg oral, up to six doses",consistent with the underlying infections required for enrollment
same,horses defined as primary responders after Dose 1,"[1]; Phase 2, 40 mg/kg oral",7/8
same,horses defined as primary responders after Dose 1,"[1]; phase 1, 30 mg/kg oral",7/9
Cc1c(N(C)CS(=O)(=O)O)c(=O)n(-c2ccccc2)n1C [metamizole sodium],horses with clinically significant improvement in rectal temperature,[2],8
"Cc1c(N(C)CS(=O)(=O)O)c(=O)n(-c2ccccc2)n1C [metamizole, [(2,3-dihydro-1,5-dimethyl-3-oxo-2-phenyl-1H-pyrazol-4-yl)methylamino] methanesulfonic acid]","bioavailability, orally vs parenterally administered metamizole",[3],comparable bioavailability
